Measurements reported in patent US9695155B2, “Herbicidal substituted pyrimidinyloxy benzene compounds” (E. I. DU PONT DE NEMOURS AND COMPANY, priority 2013, dated 2017).

Legend:
spring wheat = assay: Test D postemergence; assay type: in vivo, Triticum aestivum; conditions: Triticum aestivum, post-emergence; for plant injury at 16 g/ha: 16 g ai/ha, scale 0-100, read-out: Plant response rating, Wheat, Spring; for plant injury at 31 g/ha: 31 g ai/ha; for plant injury at 62 g/ha: 62 g ai/ha; for plant injury at 125 g/ha: 125 g ai/ha
Outline: (§1)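 Seeds sown in silt loam soil got preemergence sprays; plants in peat/vermiculite potting medium were sprayed postemergence at 2–18 cm (1- to 4-leaf stage). Chemicals were formulated in a non-phytotoxic solvent mixture with surfactant. After 7 to 21 days in a controlled environment, injury was rated visually versus controls, 0 (no effect) to 100 (complete control).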

winter wheat = assay: Test D postemergence; assay type: in vivo, Triticum aestivum; conditions: Triticum aestivum, post-emergence; for plant injury at 16 g/ha: 16 g ai/ha, scale 0-100, read-out: Plant response rating, Wheat, Winter; for plant injury at 31 g/ha: 31 g ai/ha; for plant injury at 62 g/ha: 62 g ai/ha; for plant injury at 125 g/ha: 125 g ai/ha
Outline: as §1

blackgrass = assay: Test D preemergence; assay type: in vivo, Alopecurus myosuroides; conditions: Alopecurus myosuroides, pre-emergence; for pest or weed control at 16 g/ha: 16 g ai/ha, scale 0 (no effect) to 100 (complete control), read-out: Plant response rating, Blackgrass; for pest or weed control at 31 g/ha: 31 g ai/ha; for pest or weed control at 62 g/ha: 62 g ai/ha; for pest or weed control at 125 g/ha: 125 g ai/ha
Outline: as §1

winter barley = assay: Test D preemergence; assay type: in vivo, Hordeum vulgare; conditions: Hordeum vulgare, pre-emergence; for plant injury at 16 g/ha: 16 g ai/ha, scale 0 (no effect) to 100 (complete control), read-out: Plant response rating, Barley, Winter; for plant injury at 31 g/ha: 31 g ai/ha; for plant injury at 62 g/ha: 62 g ai/ha; for plant injury at 125 g/ha: 125 g ai/ha
Outline: as §1

spring barley = assay: Test D preemergence; assay type: in vivo, Hordeum vulgare; conditions: Hordeum vulgare, pre-emergence; for plant injury at 16 g/ha: 16 g ai/ha, scale 0 (no effect) to 100 (complete control), read-out: Plant response rating, Barley, Spring; for plant injury at 31 g/ha: 31 g ai/ha; for plant injury at 62 g/ha: 62 g ai/ha; for plant injury at 125 g/ha: 125 g ai/ha
Outline: as §1

green foxtail = assay: Test D postemergence; assay type: in vivo, Setaria viridis; conditions: Setaria viridis, post-emergence; for pest or weed control at 16 g/ha: 16 g ai/ha, scale 0-100, read-out: Plant response rating, Foxtail, Green; for pest or weed control at 31 g/ha: 31 g ai/ha; for pest or weed control at 62 g/ha: 62 g ai/ha; for pest or weed control at 125 g/ha: 125 g ai/ha
Outline: as §1

bluegrass = assay: Test D preemergence; assay type: in vivo, Poa annua; conditions: Poa annua, pre-emergence; for pest or weed control at 16 g/ha: 16 g ai/ha, scale 0 (no effect) to 100 (complete control), read-out: Plant response rating, Bluegrass; for pest or weed control at 31 g/ha: 31 g ai/ha; for pest or weed control at 62 g/ha: 62 g ai/ha; for pest or weed control at 125 g/ha: 125 g ai/ha
Outline: as §1

Italian ryegrass = assay: Test D preemergence; assay type: in vivo, Lolium multiflorum; conditions: Lolium multiflorum, pre-emergence; for pest or weed control at 16 g/ha: 16 g ai/ha; for pest or weed control at 16 g/ha / pest or weed control at 31 g/ha: scale 0 (no effect) to 100 (complete control), read-out: Plant response rating, Ryegrass, Italian; for pest or weed control at 31 g/ha: 31 g ai/ha; for pest or weed control at 62 g/ha: 62 g ai/ha; for pest or weed control at 125 g/ha: 125 g ai/ha
Outline: as §1

wild oat = assay: Test D preemergence; assay type: in vivo, Avena fatua; conditions: Avena fatua, pre-emergence; for pest or weed control at 16 g/ha: 16 g ai/ha, scale 0 (no effect) to 100 (complete control), read-out: Plant response rating, Oat, Wild; for pest or weed control at 31 g/ha: 31 g ai/ha; for pest or weed control at 62 g/ha: 62 g ai/ha; for pest or weed control at 125 g/ha: 125 g ai/ha
Outline: as §1

wild mustard = assay: Test D preemergence; assay type: in vivo, Sinapis arvensis; conditions: Brassica, pre-emergence; for pest or weed control at 16 g/ha: 16 g ai/ha, scale 0 (no effect) to 100 (complete control), read-out: Plant response rating, Mustard, Wild; for pest or weed control at 31 g/ha: 31 g ai/ha; for pest or weed control at 62 g/ha: 62 g ai/ha; for pest or weed control at 125 g/ha: 125 g ai/ha
Outline: as §1

[1] = scale 0 to 100 (0 no effect, 100 complete control), read-out: Plant response rating, Wheat, Spring
[2] = scale 0 to 100 (0 no effect, 100 complete control), read-out: Plant response rating, Wheat, Winter
[3] = scale 0-100, read-out: Plant response rating, Blackgrass
[4] = scale 0-100, read-out: Plant response rating, Barley, Winter
[5] = scale 0-100, read-out: Plant response rating, Barley, Spring
[6] = scale 0 to 100 (0 no effect, 100 complete control), read-out: Plant response rating, Foxtail, Green
[7] = scale 0-100, read-out: Plant response rating, Bluegrass
[8] = scale 0-100, read-out: Plant response rating, Ryegrass, Italian
[9] = scale 0-100, read-out: Plant response rating, Oat, Wild
[10] = scale 0-100, read-out: Plant response rating, Mustard, Wild

Compound: FC(F)(F)c1cnn(-c2ccccc2Oc2ncc(Br)cn2)c1 [Compound 18, 5-bromo-2-[2-[4-(trifluoromethyl)-1H-pyrazol-1-yl]phenoxy]pyrimidine]
- plant injury at 16 g/ha (spring wheat): 10%
- plant injury at 31 g/ha (spring wheat; [1]): 10%
- plant injury at 62 g/ha (spring wheat; [1]): 15%
- plant injury at 125 g/ha (spring wheat; [1]): 20%
- plant injury at 250 g/ha (spring wheat; 250 g ai/ha, scale 0 to 100 (0 no effect, 100 complete control), read-out: Plant response rating, Wheat, Spring): 25%
- plant injury at 16 g/ha (winter wheat): 5%
- plant injury at 31 g/ha (winter wheat; [2]): 5%
- plant injury at 62 g/ha (winter wheat; [2]): 10%
- plant injury at 125 g/ha (winter wheat; [2]): 15%
- plant injury at 250 g/ha (winter wheat; 250 g ai/ha, scale 0 to 100 (0 no effect, 100 complete control), read-out: Plant response rating, Wheat, Winter): 20%
- pest or weed control at 16 g/ha (blackgrass): 0%
- pest or weed control at 31 g/ha (blackgrass; [3]): 5%
- pest or weed control at 62 g/ha (blackgrass; [3]): 50%
- pest or weed control at 125 g/ha (blackgrass; [3]): 100%
- pest or weed control at 250 g/ha (blackgrass; 250 g ai/ha, scale 0-100, read-out: Plant response rating, Blackgrass): 100%
- plant injury at 16 g/ha (winter barley): 0%
- plant injury at 31 g/ha (winter barley; [4]): 10%
- plant injury at 62 g/ha (winter barley; [4]): 15%
- plant injury at 125 g/ha (winter barley; [4]): 15%
- plant injury at 250 g/ha (winter barley; 250 g ai/ha, scale 0-100, read-out: Plant response rating, Barley, Winter): 25%
- plant injury at 16 g/ha (spring barley): 0%
- plant injury at 31 g/ha (spring barley; [5]): 5%
- plant injury at 62 g/ha (spring barley; [5]): 5%
- plant injury at 125 g/ha (spring barley; [5]): 0%
- plant injury at 250 g/ha (spring barley; 250 g ai/ha, scale 0-100, read-out: Plant response rating, Barley, Spring): 30%
- pest or weed control at 16 g/ha (green foxtail): 10%
- pest or weed control at 31 g/ha (green foxtail; [6]): 10%
- pest or weed control at 62 g/ha (green foxtail; [6]): 15%
- pest or weed control at 125 g/ha (green foxtail; [6]): 20%
- pest or weed control at 250 g/ha (green foxtail; 250 g ai/ha, scale 0 to 100 (0 no effect, 100 complete control), read-out: Plant response rating, Foxtail, Green): 25%
- pest or weed control at 16 g/ha (bluegrass): 10%
- pest or weed control at 31 g/ha (bluegrass; [7]): 30%
- pest or weed control at 62 g/ha (bluegrass; [7]): 70%
- pest or weed control at 125 g/ha (bluegrass; [7]): 100%
- pest or weed control at 250 g/ha (bluegrass; 250 g ai/ha, scale 0-100, read-out: Plant response rating, Bluegrass): 100%
- pest or weed control at 16 g/ha (Italian ryegrass): 10%
- pest or weed control at 31 g/ha (Italian ryegrass): 10%
- pest or weed control at 62 g/ha (Italian ryegrass; [8]): 20%
- pest or weed control at 125 g/ha (Italian ryegrass; [8]): 25%
- pest or weed control at 250 g/ha (Italian ryegrass; 250 g ai/ha, scale 0-100, read-out: Plant response rating, Ryegrass, Italian): 50%
- pest or weed control at 16 g/ha (wild oat): 0%
- pest or weed control at 31 g/ha (wild oat; [9]): 0%
- pest or weed control at 62 g/ha (wild oat; [9]): 0%
- pest or weed control at 125 g/ha (wild oat; [9]): 5%
- pest or weed control at 250 g/ha (wild oat; 250 g ai/ha, scale 0-100, read-out: Plant response rating, Oat, Wild): 30%
- pest or weed control at 16 g/ha (wild mustard): 80%
- pest or weed control at 31 g/ha (wild mustard; [10]): 85%
- pest or weed control at 62 g/ha (wild mustard; [10]): 100%
- pest or weed control at 125 g/ha (wild mustard; [10]): 90%
- pest or weed control at 250 g/ha (wild mustard; 250 g ai/ha, scale 0-100, read-out: Plant response rating, Mustard, Wild): 100%

Compound: FC(F)(F)c1cn(-c2ccccc2Oc2ncc(Cl)cn2)nn1 [Compound 166, 5-chloro-2-[2-[4-(trifluoromethyl)-1H-1,2,3-triazol-1-yl]phenoxy]pyrimidine]
- plant injury at 16 g/ha (spring wheat): 5%
- plant injury at 31 g/ha (spring wheat; [1]): 10%
- plant injury at 62 g/ha (spring wheat; [1]): 25%
- plant injury at 125 g/ha (spring wheat; [1]): 35%
- plant injury at 16 g/ha (winter wheat): 5%
- plant injury at 31 g/ha (winter wheat; [2]): 15%
- plant injury at 62 g/ha (winter wheat; [2]): 30%
- plant injury at 125 g/ha (winter wheat; [2]): 40%
- pest or weed control at 16 g/ha (blackgrass): 10%
- pest or weed control at 31 g/ha (blackgrass; [3]): 55%
- pest or weed control at 62 g/ha (blackgrass; [3]): 70%
- pest or weed control at 125 g/ha (blackgrass; [3]): 95%
- plant injury at 16 g/ha (winter barley): 0%
- plant injury at 31 g/ha (winter barley; [4]): 0%
- plant injury at 62 g/ha (winter barley; [4]): 35%
- plant injury at 125 g/ha (winter barley; [4]): 50%
- plant injury at 16 g/ha (spring barley): 0%
- plant injury at 31 g/ha (spring barley; [5]): 0%
- plant injury at 62 g/ha (spring barley; [5]): 30%
- plant injury at 125 g/ha (spring barley; [5]): 60%
- pest or weed control at 16 g/ha (green foxtail): 10%
- pest or weed control at 31 g/ha (green foxtail; [6]): 15%
- pest or weed control at 62 g/ha (green foxtail; [6]): 20%
- pest or weed control at 125 g/ha (green foxtail; [6]): 35%
- pest or weed control at 16 g/ha (bluegrass): 5%
- pest or weed control at 31 g/ha (bluegrass; [7]): 20%
- pest or weed control at 62 g/ha (bluegrass; [7]): 65%
- pest or weed control at 125 g/ha (bluegrass; [7]): 100%
- pest or weed control at 16 g/ha (Italian ryegrass): 20%
- pest or weed control at 31 g/ha (Italian ryegrass): 40%
- pest or weed control at 62 g/ha (Italian ryegrass; [8]): 60%
- pest or weed control at 125 g/ha (Italian ryegrass; [8]): 85%
- pest or weed control at 16 g/ha (wild oat): 0%
- pest or weed control at 31 g/ha (wild oat; [9]): 30%
- pest or weed control at 62 g/ha (wild oat; [9]): 55%
- pest or weed control at 125 g/ha (wild oat; [9]): 75%
- pest or weed control at 16 g/ha (wild mustard): 65%
- pest or weed control at 31 g/ha (wild mustard; [10]): 95%
- pest or weed control at 62 g/ha (wild mustard; [10]): 100%
- pest or weed control at 125 g/ha (wild mustard; [10]): 100%
